For this experiment, the system named is CD8+ T cells. Put plainly: In vitro immunogenicity of HLA-A*2402 restricted TUMAPs: priming of CD8+ T cells with pMHC/anti-CD28 coated beads (aAPC), multimer staining. Conditions: HLA-A*2402 peptides, healthy donors, three stimulation cycles; for Wells positive/evaluable [%]: at least 48 wells evaluable; for Donors positive/evaluable [%]: at least four donors evaluable. Type of experiment: cell-based, human. The text has this: In order to perform in vitro stimulations by artificial antigen presenting cells (aAPC) loaded with peptide-MHC complex (pMHC) and anti-CD28 antibody, we first isolated CD8 T cells from fresh HLA-A*24 leukapheresis products or from HLA-A*2 buffy coats of healthy donors obtained from the Blood Bank Tuebingen.
CD8 T cells were either directly enriched or PBMCs (peripheral blood mononuclear cells) were isolated first by using standard gradient separation medium (PAA, Colbe, Germany). Isolated CD8 lymphocytes or PBMCs were incubated until use in T-cell medium (TCM) consisting of RPMI-Glutamax (Invitrogen, Karlsruhe, Germany) supplemented with 10% heat inactivated human AB serum (PAN-Biotech, Aidenbach, Germany), 100 U/ml Penicillin/100 μg/ml Streptomycin (Cambrex, Cologne, Germany), 1 mM sodium pyruvate (CC Pro, Oberdorla, Germany), 20 μg/ml Gentamycin (Cambrex). […] Isolation of CD8+ lymphocytes was performed by positive selection using CD8 MicroBeads (Miltenyi Biotec, Bergisch-Gladbach, Germany).
800.000 beads/200 μl were coated in 96-well plates in the presence of 600 ng biotin-anti-CD28 plus 200 ng relevant biotin-pMHC (high density beads). […] Half of the medium was then exchanged by fresh TCM supplemented with 80 U/ml IL-2 and incubation was continued for 3-4 days at 37° C. This stimulation cycle was performed for a total of three times.
In vitro priming of specific multimer+ CD8+ lymphocytes was detected by appropriate gating and by comparing to negative control stimulations.

Regarding “AYAIIKEEL (listed as Homo sapiens) [ATAD2-001]”, the “Wells positive/evaluable [%]” value is recorded as 3% and the “Donors positive/evaluable [%]” value amounted to 33%.

Consider “AYLVYTDRL (listed as Homo sapiens) [PPAP2C-001]”, for which the “Wells positive/evaluable [%]” value was 29% and the “Donors positive/evaluable [%]” value is given as 83%. The like results for “AYPTVKFYF (listed as Homo sapiens) [DNAJC10-002]” were, in that order, 3% and 33%.

Turning to “DYAYLREHF (listed as Homo sapiens) [ZNF598-001]”, the “Wells positive/evaluable [%]” value is on record as 17% and the “Donors positive/evaluable [%]” value was 83%. On to “DYTIGFGKF (listed as Homo sapiens) [ITGB4-001]”, for which the “Wells positive/evaluable [%]” value was 20% and the “Donors positive/evaluable [%]” value stood at 67%. On to “FYISPVNKL (listed as Homo sapiens) [AVL9-001]”, for which the “Wells positive/evaluable [%]” value stood at 31% and the “Donors positive/evaluable [%]” value amounted to 100%. In the same order, the values of “FYQPKIQQF (listed as Homo sapiens) [FANCI-001]” are 1% and 17%. Consider “HYKPTPLYF (listed as Homo sapiens) [SMC4-001]”, for which the “Wells positive/evaluable [%]” value is on record as 10% and the “Donors positive/evaluable [%]” value is reported as 73%. In the same order, the values of “IFSKIVSLF (listed as Homo sapiens) [EIF2S3-001]” are 1% and 17%. The like results for “IYAPKLQEF (listed as Homo sapiens) [CCNE2-001]” were, in that order, 0% and 0%. In the same order, the values of “IYLEVIHNL (listed as Homo sapiens) [DNAJC10-001]” are 15% and 50%. As for “IYNGKLFDLL (listed as Homo sapiens) [KIF2C-001]”, the “Wells positive/evaluable [%]” value is listed as 2% and the “Donors positive/evaluable [%]” value worked out at 17%. In the same order, the values of “IYPDASLLI (listed as Homo sapiens) [CEA-010]” are 3% and 40%.

As to “KYLTVKDYL (listed as Homo sapiens) [ATAD2-002]”, the “Wells positive/evaluable [%]” value is listed as 1% and the “Donors positive/evaluable [%]” value is 17%. In the same order, the values of “KYNDTFWKEF (listed as Homo sapiens) [HSP90B1-001]” are 7% and 50%. With “LYLENIDEF (listed as Homo sapiens) [POLD3-001]”, the “Wells positive/evaluable [%]” value is reported as 7% and the “Donors positive/evaluable [%]” value is reported as 67%. The like results for “LYPEVFEKF (listed as Homo sapiens) [ATAD2-003]” were, in that order, 0% and 0%.

For “LYQILQGIVF (listed as Homo sapiens) [CDC2-001]”, the “Wells positive/evaluable [%]” value was found to be 28% and the “Donors positive/evaluable [%]” value stood at 83%. The like results for “MYMTVSIIDRF (listed as Homo sapiens) [CCNB1-003]” were, in that order, 3% and 33%.

With “NYEETFPHI (listed as Homo sapiens) [MUC6-001]”, the “Wells positive/evaluable [%]” value was found to be 22% and the “Donors positive/evaluable [%]” value is on record as 83%.

Turning to “NYLLYVSNF (listed as Homo sapiens) [MST1R-001]”, the “Wells positive/evaluable [%]” value is 13% and the “Donors positive/evaluable [%]” value amounted to 50%. “NYLPFIMEL (listed as Homo sapiens) [UCHL5-001]”: the “Wells positive/evaluable [%]” value was found to be 12% and the “Donors positive/evaluable [%]” value is 75%. The like results for “QYASRFVQL (listed as Homo sapiens) [PLK4-001]” were, in that order, 5% and 60%. The like results for “QYIDKLNEL (listed as Homo sapiens) [CCDC88A-001]” were, in that order, 0% and 0%. In the same order, the values of “RFLSGIINF (listed as Homo sapiens) [NUF2-002]” are 6% and 50%. As to “RYLEGTSCI (listed as Homo sapiens) [EPPK1-001]”, the “Wells positive/evaluable [%]” value came out at 1% and the “Donors positive/evaluable [%]” value is recorded as 17%.

Turning to “RYLPKGFLNQF (listed as Homo sapiens) [PTK2-001]”, the “Wells positive/evaluable [%]” value came to 4% and the “Donors positive/evaluable [%]” value was determined as 17%. In the same order, the values of “RYLPQCSYF (listed as Homo sapiens) [CCND2-001]” are 10% and 17%. In the same order, the values of “RYLWATVTI (listed as Homo sapiens) [ASPM-001]” are 3% and 17%. Turning to “SYATLLHVL (listed as Homo sapiens) [GPR39-001]”, the “Wells positive/evaluable [%]” value was 6% and the “Donors positive/evaluable [%]” value came to 50%. For the sequence “SYIDVLPEF (listed as Homo sapiens) [MET-006]”, the “Wells positive/evaluable [%]” value turned out to be 21% and the “Donors positive/evaluable [%]” value is listed as 67%.

Consider “SYIIDPLNL (listed as Homo sapiens) [PROM1-001]”, for which the “Wells positive/evaluable [%]” value is recorded as 26% and the “Donors positive/evaluable [%]” value is 83%. In the same order, the values of “SYLELVKSL (listed as Homo sapiens) [SDHC-001]” are 3% and 33%. The like results for “SYLQAANAL (listed as Homo sapiens) [COL6A3-001]” were, in that order, 0% and 0%.

In the case of “SYNPLWLRI (listed as Homo sapiens) [ASPM-002]”, the “Wells positive/evaluable [%]” value worked out at 32% and the “Donors positive/evaluable [%]” value is recorded as 67%. “SYNVTSVLF (listed as Homo sapiens) [LCN2-001]”: the “Wells positive/evaluable [%]” value was found to be 1% and the “Donors positive/evaluable [%]” value was determined as 17%.

Turning to “SYQKVIELF (listed as Homo sapiens) [PBK-001]”, the “Wells positive/evaluable [%]” value turned out to be 0% and the “Donors positive/evaluable [%]” value stood at 0%. In the case of “TYGNLLDYL (listed as Homo sapiens) [ABL1-001]”, the “Wells positive/evaluable [%]” value is reported as 18% and the “Donors positive/evaluable [%]” value was determined as 83%.

“VFDTAIAHLF (listed as Homo sapiens) [SIAH2-001]”: the “Wells positive/evaluable [%]” value worked out at 8% and the “Donors positive/evaluable [%]” value is 50%. “VFIFKGNQF (listed as Homo sapiens) [MMP3-001]”: the “Wells positive/evaluable [%]” value came out at 1% and the “Donors positive/evaluable [%]” value turned out to be 11%.

As for “VWSDVTPLTF (listed as Homo sapiens) [MMP11-001]”, the “Wells positive/evaluable [%]” value was 11% and the “Donors positive/evaluable [%]” value came out at 33%. In the same order, the values of “VYFSKSEQL (listed as Homo sapiens) [EPHA2-005]” are 0% and 0%. In the same order, the values of “VYGIRLEHF (listed as Homo sapiens) [NUF2-001]” are 50% and 100%. In the case of “VYIEKNDKL (listed as Homo sapiens) [ERBB3-001]”, the “Donors positive/evaluable [%]” value is reported as 83%.

The values are drawn from US11273200B2, “Immunotherapy against several tumors including gastrointestinal and gastric cancer” (Immatics Biotechnologies GmbH, priority 2010, dated 2022).
